Reference: paper PMC2997436 (Journal of medicinal chemistry, 2010)
Where two headings read alike, the source gives them in different places.

Tests used:
rat α4β2 nAChR = rat α4β2 nAChR (Rattus norvegicus, UniProt P09483+P12390); type: binding
α3β4 nAChR [1] = target: T1, α3β4 nAChR (Rattus norvegicus, UniProt P04757+P12392); type: cell-based
rat α3β4 nAChR = rat α3β4 nAChR (Rattus norvegicus, UniProt P04757+P12392); type: binding
α7 nAChR = α7 nAChR (Rattus norvegicus, UniProt Q05941); experiment: biochemical; type: binding
Chain of α7 nAChR (Q05941 23-502): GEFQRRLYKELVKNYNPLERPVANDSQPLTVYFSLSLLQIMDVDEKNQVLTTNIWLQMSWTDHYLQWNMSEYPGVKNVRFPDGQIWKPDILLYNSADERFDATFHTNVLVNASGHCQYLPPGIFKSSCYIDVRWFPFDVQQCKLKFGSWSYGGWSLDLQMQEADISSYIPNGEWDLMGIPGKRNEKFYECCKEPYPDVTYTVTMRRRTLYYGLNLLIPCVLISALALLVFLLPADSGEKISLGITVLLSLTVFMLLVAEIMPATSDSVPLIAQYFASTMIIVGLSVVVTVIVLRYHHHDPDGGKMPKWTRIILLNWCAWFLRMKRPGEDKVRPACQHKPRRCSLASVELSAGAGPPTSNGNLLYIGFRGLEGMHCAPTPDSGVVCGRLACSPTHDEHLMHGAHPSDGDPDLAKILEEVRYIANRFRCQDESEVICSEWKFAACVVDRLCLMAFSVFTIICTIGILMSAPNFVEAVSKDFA

α4β2 nAChR = α4β2 nAChR (Rattus norvegicus, UniProt P09483+P12390); experiment: Functional assay; type: cell-based
Chain of α4β2 nAChR (P09483 31-630): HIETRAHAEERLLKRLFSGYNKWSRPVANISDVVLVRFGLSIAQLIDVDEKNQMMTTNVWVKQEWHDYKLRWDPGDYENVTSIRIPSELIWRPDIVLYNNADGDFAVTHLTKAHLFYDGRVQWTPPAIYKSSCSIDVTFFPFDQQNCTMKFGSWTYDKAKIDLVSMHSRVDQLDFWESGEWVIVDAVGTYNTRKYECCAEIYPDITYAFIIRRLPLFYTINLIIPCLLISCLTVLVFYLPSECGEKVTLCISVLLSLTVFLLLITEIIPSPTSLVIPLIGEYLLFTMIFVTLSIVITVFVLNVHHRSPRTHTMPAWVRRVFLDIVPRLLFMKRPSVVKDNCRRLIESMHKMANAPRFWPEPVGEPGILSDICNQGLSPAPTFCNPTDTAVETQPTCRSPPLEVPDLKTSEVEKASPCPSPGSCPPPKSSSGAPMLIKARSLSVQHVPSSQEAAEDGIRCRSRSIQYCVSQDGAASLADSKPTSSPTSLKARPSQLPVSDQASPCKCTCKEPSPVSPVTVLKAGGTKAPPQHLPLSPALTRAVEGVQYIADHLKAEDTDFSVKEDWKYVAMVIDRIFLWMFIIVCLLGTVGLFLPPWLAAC
Chain of α4β2 nAChR (P12390 25-500): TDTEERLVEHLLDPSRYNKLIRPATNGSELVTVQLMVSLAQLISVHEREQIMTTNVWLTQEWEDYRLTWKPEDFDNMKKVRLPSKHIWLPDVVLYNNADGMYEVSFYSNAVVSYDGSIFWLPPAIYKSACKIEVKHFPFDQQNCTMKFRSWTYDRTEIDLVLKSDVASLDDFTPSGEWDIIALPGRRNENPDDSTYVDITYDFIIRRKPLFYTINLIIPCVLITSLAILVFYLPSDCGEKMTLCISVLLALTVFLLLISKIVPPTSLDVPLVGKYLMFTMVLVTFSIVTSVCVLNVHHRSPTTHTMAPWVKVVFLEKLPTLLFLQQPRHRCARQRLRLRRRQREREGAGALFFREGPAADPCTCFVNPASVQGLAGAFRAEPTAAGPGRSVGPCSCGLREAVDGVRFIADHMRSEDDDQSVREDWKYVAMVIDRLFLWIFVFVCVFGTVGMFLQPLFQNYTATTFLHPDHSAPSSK

α3β4 nAChR [2] = target: T1, α3β4 nAChR; conditions: change in both Kd and Bmax of [3H]epibatidine
[3] = FLIPR, alone and against epibatidine-induced Ca2+ fluorescence

T1 sequence (P12392 22-495): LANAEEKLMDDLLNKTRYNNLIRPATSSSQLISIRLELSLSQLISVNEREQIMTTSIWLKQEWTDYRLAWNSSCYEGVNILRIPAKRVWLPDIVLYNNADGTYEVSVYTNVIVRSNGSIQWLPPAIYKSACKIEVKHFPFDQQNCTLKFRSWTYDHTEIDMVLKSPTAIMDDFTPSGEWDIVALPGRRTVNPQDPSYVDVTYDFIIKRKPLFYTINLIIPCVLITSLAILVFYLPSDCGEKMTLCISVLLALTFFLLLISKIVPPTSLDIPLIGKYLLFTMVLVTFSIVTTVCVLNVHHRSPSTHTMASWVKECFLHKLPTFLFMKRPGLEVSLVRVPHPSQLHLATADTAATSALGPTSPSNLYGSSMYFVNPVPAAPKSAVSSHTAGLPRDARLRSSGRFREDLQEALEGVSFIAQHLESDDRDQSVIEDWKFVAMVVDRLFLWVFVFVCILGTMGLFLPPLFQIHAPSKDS
T1 sequence (P04757 26-499): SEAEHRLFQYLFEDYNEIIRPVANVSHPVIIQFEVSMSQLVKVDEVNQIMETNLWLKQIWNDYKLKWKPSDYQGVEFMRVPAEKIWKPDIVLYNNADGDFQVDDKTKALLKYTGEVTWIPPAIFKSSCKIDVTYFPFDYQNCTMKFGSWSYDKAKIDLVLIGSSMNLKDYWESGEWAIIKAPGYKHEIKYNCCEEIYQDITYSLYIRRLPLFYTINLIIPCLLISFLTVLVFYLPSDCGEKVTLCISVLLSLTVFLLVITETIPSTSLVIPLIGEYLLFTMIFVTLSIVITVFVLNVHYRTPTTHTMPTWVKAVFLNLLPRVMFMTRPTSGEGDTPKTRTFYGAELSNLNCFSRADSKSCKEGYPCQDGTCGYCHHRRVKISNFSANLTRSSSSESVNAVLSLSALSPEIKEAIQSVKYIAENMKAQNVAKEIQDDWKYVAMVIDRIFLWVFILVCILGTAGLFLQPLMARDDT
Chain of rat α4β2 nAChR (P09483 31-630): as the sequence (P09483 31-630) above
Chain of rat α4β2 nAChR (P12390 25-500): as the sequence (P12390 25-500) above
Chain of rat α3β4 nAChR (P04757 26-499): as the sequence (P04757 26-499) above
Chain of rat α3β4 nAChR (P12392 22-495 limits assumed): as the sequence (P12392 22-495) above

With `O=C1Cc2ccccc2N1C1CC2CC(C1)N(Cc1ccccc1)C2` (stereo not drawn) [Compound 12] the “binding affinity at α4β2 nAChR (in words)” value (rat α4β2 nAChR) was “completely abolished affinity”.

For `CN1C2C=C(c3cccnc3)CC1CCC2` (stereo not drawn) [Compound 8, 9-methyl-3-(pyridin-3-yl)-9-azabicyclo[3.3.1]non-2-ene], the “functional activity at α3β4 nAChR (in words)” value (α3β4 nAChR [1]; [3]) was “partial agonist activity”.

For `CCOC(=O)N1C2C=C(c3cccnc3)CC1CCC2` (stereo not drawn) [Compound 7], the “binding affinity at α3β4 nAChR (in words)” value (rat α3β4 nAChR) was “complete loss of binding affinity” and the “binding affinity at α4β2 nAChR (in words)” value (rat α4β2 nAChR) was “complete loss of binding affinity”.

For `Clc1ccc(C2CC3CCC2N3)cn1` (stereo not drawn) [Epibatidine, reference compound], the “increase in intracellular Ca2+-induced fluorescence” value (α3β4 nAChR [1]) was 1000 fold.

For `O=C1Cc2ccccc2N1C1CC2CCCC(C1)N2` (stereo not drawn) [Compound 6], the “functional activity at α3β4 nAChR (in words)” value (α3β4 nAChR [1]; [3]) was “antagonists” and the “potency in reversing epibatidine-induced Ca2+ fluorescence” value (α3β4 nAChR [1]; FLIPR, α3β4 HEK cells) was “micromolar range”.

For `C1=C(c2cccnc2)CC2CC1CN2Cc1ccccc1` (stereo not drawn) [Compound 10, 6-benzyl-3-(pyridin-3-yl)-6-azabicyclo[3.2.1]oct-2-ene], the Ki (α7 nAChR) was 424 nM, the Ki (rat α3β4 nAChR) was 170 ± 47.9 nM and the “functional activity at α3β4 nAChR (in words)” value (α3β4 nAChR [1]) was “partial agonist”. The “selectivity for α4β2 over α3β4 receptors” value (rat α4β2 nAChR) was “about 100 fold”, the “selectivity for α4β2 over α7 nAChR” value (rat α4β2 nAChR) was “greater than 200 fold” and the Ki (rat α4β2 nAChR; binding affinity (Ki) α4β2) was 1.95 ± 0.18 nM. The “functional activity at α4β2 nAChR (in words)” value (α4β2 nAChR) was “partial agonist”.

`O=c1cccc2n1C[C@@H]1CNC[C@H]2C1` [Cytisine] was tested, and the “mode of binding with epibatidine at α3β4” value (α3β4 nAChR [2]) was “noncompetitively”.
